Measured values taken from US5705687A, “Neurotropic drug and method for preparation of same” (priority 1993, dated 1998).
Values joined by “and” are separate entries in the source; they are usually repeats but may differ in a detail not shown here. Equal entries are not always repeated. Structures can show the parent of a compound that is named as a salt.

What was measured:
[1] = Acute toxicity in mice (Litchfield-Wilcockson); type: in vivo, white crossbred mice; conditions: mouse, in vivo
mice [2] = assay: Acute toxicity in mice (Litchfield-Wilcockson); type: in vivo, white crossbred mice; conditions: i.p., single dose
mice [3] = assay: Rotating rod: myorelaxation and movement coordination; type: in vivo, white crossbred mice; conditions: same dosage range (0.1 to 150 mg/kg), entire test period 3.5 hours
Experimental: (§1) The myorelaxing effect of the new compounds was tested by the method of the "rotating rod"(Dunham N. W., Miga T. S., A note on a simplex apparatus for detecting neurological deficit in rat and mice, J. Am. Pharm. Ass., 1957, vol. 46, No. 3, pp. 208-209), which allows one to record any abnormalities in coordination and balance, as well as ataxia. The mice in the laboratory tests were placed on a horizontal rod, 2 cm in diameter, rotating at a speed of 5 revolutions per minute. The object was to register the number of mice which were able to maintain equilibrium on the rod for two minutes. Any presence of a myorelaxing component was considered to be a side effect of the substance being studied.

mice [4] = assay: Hypoxic (hypercapnic) normobaric hypoxia, lifespan; type: in vivo; conditions: for Average lifespan: control 411 ± 11.9, P < 0.001; for Lifespan, % effect: control = 100
Experimental: (§2) The antihypoxic properties of the new compounds were tested in the models of hypoxic normobaric, hemic and histotoxic hypoxia. The hypoxic (hypercapnic) normobaric hypoxia was induced by placing the mice in hermetically sealed transparent boxes, subdivided into compartments, 80 cm^3 each. The animals were observed until all respiratory movements ceased. The hemic hypoxia was induced by the intraperitoneal administration of sodium nitrite in a dose of 400 mg/kg. The hystotoxic hypoxia was induced by the intraperitoneal administration of sodium nitroprussiate, in a dose of a 20 mg/kg dosage.

mice [5] = assay: Histotoxic hypoxia (sodium nitroprussiate), lifespan; type: in vivo; conditions: for Lifespan, % effect: Na-nitro-prussiate alone = 100
Experimental: as §2

mice [6] = assay: Conditioned reaction of passive avoidance (CPRA), amnesia by electric shock; type: in vivo; conditions: for Latent period after training: 24 h, amnesia control 31.1; for % effect (latent period): control + amnesia 91.2, w/o amnesia 288.1; for Δt, increase in latent period (t ± m, sec): amnesia control -3 ± 6
Text: The effect produced by the new substance on the processes of the central nervous system was examined on the model of one-time training of mice, of conditioned reaction of passive avoidance (CPRA), where the amnesic effect was produced by electric shock. During the tests, a two-section chamber was used to condition a certain reflex to the lit and darkened sections. First, for two minutes, the amount of time was registered, that a mouse spent in the lit section before entering the darkened section. Then, while in the darkened section, the animal would receive a single electric shock through the electrode floor (training). The training was immediately followed by an electric shock (50 Hz, 0.2 see). […] The substance was intraperitoneally administered 40 min. prior to the start of the training, the control group received a physiological solution. […] The anti-amnesic properties of the new compound are represented by an increase in the latent period before and after the training. (Δt)

[7] = Solubility and hygroscopicity; type: physicochemical; conditions: powder
central nervous system = assay: Neuropharmacological screening, overall findings; type: in vivo, mice; conditions: of all the salts derived
Experimental: as §1

mice [8] = assay: Soporific action of hexobarbital; conditions: for Duration of sleep, % effect / Lateral position, % effect: hexobarbital alone = 100
mice [9] = assay: Soporific action of barbital sodium; conditions: for Duration of sleep, % effect / Lateral position, % effect: barbital sodium alone = 100; for increase of sleep duration over control group: barbital sodium
mice [10] = assay: Orientation reflexes: test of ascent onto an inclined net; conditions: 0.1 to 150 mg/kg
mice [11] = assay: Spontaneous motor activity (SMA), 40-channel automatic motor meter; conditions: for Average SMA, M ± m: control 632.8 ± 35.2; for Relative change in activity (%): control = 100
[12] = 1 mg/kg i.p. + hexobarbital 100 mg/kg

SMILES: CC(C)(CO)C(=O)C(=O)NCCCC(=O)O [KPA-Ca, calcium salt of ketopantoyl aminobutyrate]
- LD50 ([1]; intravenous, read-out: DL50 (the source's name)): 1040 ± 13.5 mg/kg
- MTD ([1]; ip, read-out: maximum tolerance level): 1500 mg/kg
- LD10 (acute toxicity) (mice [2]): 2234.3 ± 60.7 mg/kg
- ataxia, myorelaxation, loss of movement coordination (mice [3]): did not induce any ataxia, myorelaxation or loss of movement coordination
- Average lifespan (mice [4]; 10 mg/kg): 558 ± 21.5 s
- Lifespan, % effect (mice [4]; 10 mg/kg): 135.8%
- Average lifespan (mice [4]; 25 mg/kg): 570 ± 17.3 s
- Lifespan, % effect (mice [4]; 25 mg/kg): 138.7%
- Average lifespan (mice [4]; 50 mg/kg): 588 ± 22.4 s
- Lifespan, % effect (mice [4]; 50 mg/kg): 143.1%
- Average lifespan (mice [4]; 100 mg/kg): 600 ± 30.7 s
- Lifespan, % effect (mice [4]; 100 mg/kg): 146%
- extension of lifespan compared to control group (mice [4]; 10 to 100 mg/kg): 35.8-46%
- Average lifespan (mice [5]; 10 mg/kg + Na-nitro-prussiate 20 mg/kg): 798 ± 38 s
- Lifespan, % effect (mice [5]; 10 mg/kg): 104.3%
- Average lifespan (mice [5]; 25 mg/kg + Na-nitro-prussiate 20 mg/kg): 855 ± 43.2 s
- Lifespan, % effect (mice [5]; 25 mg/kg): 111.8%
- increase in lifespan (mice [5]; 50 mg/kg): 21.6%
- Average lifespan (mice [5]; 50 mg/kg + Na-nitro-prussiate 20 mg/kg, P < 0.05): 930 ± 55.1 s
- Lifespan, % effect (mice [5]; 50 mg/kg): 121.6%
- increase in lifespan (mice [5]; 100 mg/kg): 38.4%
- Average lifespan (mice [5]; 100 mg/kg + Na-nitro-prussiate 20 mg/kg, P < 0.01): 1059 ± 64 s
- Lifespan, % effect (mice [5]; 100 mg/kg): 138.4%
- Latent period before training (mice [6]; 10 mg/kg i.p., 40 min before training): 27.1 s
- Latent period after training (mice [6]; 10 mg/kg i.p.): 90.3 s
- % effect (latent period) (mice [6]; 10 mg/kg i.p.): 334.4%
- Δt, increase in latent period (t ± m, sec) (mice [6]; 10 mg/kg i.p., spread 12.6, P < 0.01): 63.2 s
- Latent period before training (mice [6]; 25 mg/kg i.p.): 31.4 s
- Latent period after training (mice [6]; 25 mg/kg i.p.): 102.4 s
- Δt, increase in latent period (t ± m, sec) (mice [6]; 25 mg/kg i.p., P < 0.001): 71 ± 9 s
- % effect (latent period) (mice [6]; 25 mg/kg i.p.): 396.1%
- Latent period before training (mice [6]; 50 mg/kg i.p.): 30.6 s
- Latent period after training (mice [6]; 50 mg/kg i.p.): 77.8 s
- % effect (latent period) (mice [6]; 50 mg/kg i.p.): 254.2%
- Δt, increase in latent period (t ± m, sec) (mice [6]; 50 mg/kg i.p., spread 13.3, P < 0.01): 47.2 s
- Latent period before training (mice [6]; 100 mg/kg i.p.): 31.8 s
- Latent period after training (mice [6]; 100 mg/kg i.p.): 82.8 s
- Δt, increase in latent period (t ± m, sec) (mice [6]; 100 mg/kg i.p., P < 0.01): 51 ± 14.1 s
- % effect (latent period) (mice [6]; 100 mg/kg i.p.): 260.4%
- anti-amnesic effect (in words) (mice [6]; electric shock amnesia): counteracted the amnesic effect of the electric shock
- hygroscopicity [7]: hygroscopic
- properties compared with the other salts (central nervous system): best properties
- Duration of sleep (mice [8]; [12]): 44.6 ± 5.2 min
- Lateral position (mice [8]; [12]): 2.5 ± 0.17 min
- Duration of sleep, % effect (mice [8]; 1 mg/kg): 96.3%
- Lateral position, % effect (mice [8]; 1 mg/kg): 104.2%
- Lateral position (mice [8]; 10 mg/kg i.p. + hexobarbital 100 mg/kg): 2.4 ± 0.16 min
- Duration of sleep (mice [8]; 10 mg/kg i.p. + hexobarbital 100 mg/kg, P < 0.01): 67.2 ± 4.3 min
- Duration of sleep, % effect (mice [8]; 10 mg/kg): 145.1%
- Lateral position, % effect (mice [8]; 10 mg/kg): 100%
- Lateral position (mice [8]; 25 mg/kg i.p. + hexobarbital 100 mg/kg): 2.5 ± 0.2 min
- Duration of sleep (mice [8]; 25 mg/kg i.p. + hexobarbital 100 mg/kg, P < 0.001): 60.6 ± 1.9 min
- Duration of sleep, % effect (mice [8]; 25 mg/kg): 130.9%
- Lateral position, % effect (mice [8]; 25 mg/kg): 104.2%
- Lateral position (mice [8]; 50 mg/kg i.p. + hexobarbital 100 mg/kg): 2.3 ± 0.15 min
- Duration of sleep (mice [8]; 50 mg/kg i.p. + hexobarbital 100 mg/kg, P < 0.001): 70.7 ± 3.1 min
- increase of sleep duration (mice [8]; 50 mg/kg, hexobarbital): 52.7%
- Duration of sleep, % effect (mice [8]; 50 mg/kg): 152.7%
- Lateral position, % effect (mice [8]; 50 mg/kg): 95.8%
- Lateral position (mice [8]; 100 mg/kg i.p. + hexobarbital 100 mg/kg): 2.4 ± 0.22 min
- Duration of sleep (mice [8]; 100 mg/kg i.p. + hexobarbital 100 mg/kg, P < 0.001): 93.7 ± 4.3 min
- increase of sleep duration over control group (maximum effect) (mice [8]; 100 mg/kg, hexobarbital): 102.4%
- Duration of sleep, % effect (mice [8]; 100 mg/kg): 202.4%
- Lateral position, % effect (mice [8]; 100 mg/kg): 100%
- Lateral position (mice [8]; 150 mg/kg i.p. + hexobarbital 100 mg/kg): 2.5 ± 0.34 min
- Duration of sleep (mice [8]; 150 mg/kg i.p. + hexobarbital 100 mg/kg, P < 0.001): 86.4 ± 4 min
- Duration of sleep, % effect (mice [8]; 150 mg/kg): 186.6%
- Lateral position, % effect (mice [8]; 150 mg/kg): 104.2%
- change in effect on raising the dose (mice [8]; above 100 mg/kg): not noticeable change in the effect
- effect on the lateral position (mice [8]; hexobarbital): no effect on the lateral position
- Duration of sleep, % effect (mice [9]; 1 mg/kg): 99.9%
- Lateral position, % effect (mice [9]; 1 mg/kg): 69.6%
- Duration of sleep, % effect (mice [9]; 10 mg/kg): 122.7%
- Lateral position, % effect (mice [9]; 10 mg/kg): 61.4%
- increase of sleep duration over control group (mice [9]; 25 mg/kg): 126.5%
- Duration of sleep, % effect (mice [9]; 25 mg/kg): 226.5%
- Lateral position, % effect (mice [9]; 25 mg/kg): 67.3%
- increase of sleep duration over control group (mice [9]; 50 mg/kg): 95.1% and 95%
- Duration of sleep, % effect (mice [9]; 50 mg/kg): 195.1%
- Lateral position, % effect (mice [9]; 50 mg/kg): 68.7%
- Duration of sleep, % effect (mice [9]; 100 mg/kg): 229.3%
- Lateral position, % effect (mice [9]; 100 mg/kg): 66.7%
- increase of sleep duration over control group (mice [9]): 129.3%
- effect on exploratory behaviour (mice [10]): does not disturb the "exploratory" behaviour
- decrease in number of runs in the motor meter (the same result) (mice [11]; 10 mg/kg): 30%
- dose for 30% decrease in runs, compared with pantogam dose (mice [11]; 10 mg/kg KPA-Ca vs 500 mg/kg pantogam): 50 times less
- Average SMA, M ± m (mice [11]; 10 mg/kg i.p., 60 min before, number of runs): 482.8 ± 101.8
- Relative change in activity (%) (mice [11]; 10 mg/kg i.p.): 76.3%
- Average SMA, M ± m (mice [11]; 25 mg/kg i.p., P < 0.01): 369.1 ± 68.7
- Relative change in activity (%) (mice [11]; 25 mg/kg i.p.): 58.3%
- Average SMA, M ± m (mice [11]; 50 mg/kg i.p., P < 0.01): 338.9 ± 74.5
- Relative change in activity (%) (mice [11]; 50 mg/kg i.p.): 53.6%
- Average SMA, M ± m (mice [11]; 100 mg/kg i.p., P < 0.01): 270.4 ± 75.3
- Relative change in activity (%) (mice [11]; 100 mg/kg i.p.): 42.7%
- decrease in motor activity (the same effect) (mice [11]; 150 mg/kg): 70%
- Average SMA, M ± m (mice [11]; 150 mg/kg i.p., P < 0.001): 190.6 ± 28.2
- Relative change in activity (%) (mice [11]; 150 mg/kg i.p.): 30.1%
- dose of greatest effect on motor activity (mice [11]; SMA test, mice): 150 mg/kg
- effect on motor activity (in words) (mice [11]; SMA test, mice): decreases the motor activity
